Reference: US6609014B1, “Use of PDT to inhibit intimal hyperplasia” (QLT Inc., priority 1999, dated 2003)
Several values for one entry are separate records, joined by “and”; a condition that tells them apart may be missing. Equal values may be shown once.

How the values were obtained:
[1] = test system: intimal hyperplasia in the vein of AV fistulae between the carotid artery and internal jugular vein; test: One-month dose optimization: PDT of bilateral end-to-side AV fistulae, morphometric analysis of vein cross-sections; format: in vivo, Domestic swine; set-up: key to PDT-treated fistula thrombosed (T) / PDT-treated fistula thrombosed: T = thrombosed; conditions: for Percent Lumen Compromised by Intimal Hyperplasia, PDT, Block #1 / Percent Lumen Compromised by Intimal Hyperplasia, PDT, Block #2 / Percent Lumen Compromised by Intimal Hyperplasia, Control-PDT, Block #1, Mean / Percent Lumen Compromised by Intimal Hyperplasia, Control-PDT, Block #2, Mean / Percent Lumen Compromised by Intimal Hyperplasia, PDT, Block #2, Mean / Percent Lumen Compromised by Intimal Hyperplasia, PDT, Block #1, Mean / PDT-treated fistula thrombosed (T) / Percent Lumen Compromised by Intimal Hyperplasia, Control-PDT, Block #1 / Percent Lumen Compromised by Intimal Hyperplasia, Control-PDT, Block #2: 40 min OR lamp light
Description: Domestic swine (male, 40-50 kg) were used for experiments related to the present invention. Extensive research has been performed to characterize the changes leading to intimal hyperplasia (IH) in the arteries and veins of swine, which closely resemble those in humans (22). AV fistulae were created in several pigs to confirm that measurable IH developed in the vein, just distal to the anastomoses, within one month (FIG. 1A).
Pigs were recovered and left for four weeks at which time they were exsanguinated and perfused with 10% formalin. The fistulae were surgically excised for processing and wax embedding for histology (FIGS. 1A and 2). Wax blocks containing the fistulae were cut to provide sections containing a cross-section of the anastomoses, including the artery and vein distal to the sutures (FIGS. 1A, 1B, and 3).
A porous balloon catheter was introduced into the lumen of veins to deliver either 2 mL of BPD-MA (diluted in 5% dextrose in water) or 5% dextrose in water (control), at a delivery pressure of 2 mm Hg. Two minutes later, the photosensitizer (or dextrose) was rinsed out with heparinized saline before light exposure.
The adventitia of the vein was exposed to the operating room (OR) lamp light for 40 minutes (a combination of incandescent bulbs and fluorescence tubes—approximately 1 J/cm^2).
Measurements and observations were made by morphometric analysis of cross-sections of fistulae stained with Verhoeff's elastic to assess the integrity of the vessel wall and also clearly demarcate the internal elastic lamina (IEL) for the measurement of IH. Areas within the lumen and those circumscribed by the internal elastic lamina (IEL) and the external elastic lamina (EEL) were measured directly using the Optimas (Optimas Corporation, Bothell, Wash., USA) program. The areas of the intima and the media were calculated by subtraction: intimal area equals the […], and medial area equals EEL area minus IEL area.
Statistical analysis was conducted using the two tailed t-Test (two-sample assuming unequal variances) for comparisons between groups of PDT-treated and control fistulae and paired t-tests for paired comparisons of PDT-treated and control fistulae.
End-to-side AV fistulae between the carotid artery and internal jugular vein were treated at four different BPD-MA doses (0.015, 0.15, 0.5 & 1.5 mg/2 mL) and exposed to 40 minutes of operating room (OR) lamp and ambient light to determine the optimal doses required to inhibit IH while causing minimal damage to the vein wall. Bilateral AV fistulae were created. For example, one side was treated with saline and 40 min. OR lamp light, while the other side was treated with BPD-MA (0.015 mg/2 mL or the other doses) and 40 min. OR lamp light after creating the anastomoses. At least six pigs were treated using each BPD-MA dose and the 40 minutes OR lamp light delivery system.
Optimization of PS and radiation dose was performed. Bilateral end-to-side AV fistula between the carotid artery and jugular vein were created in 29 pigs. Animals were sacrificed 4 weeks after PDT, and the fistulae were surgically excised and processed for histology. Computer-assisted measurement of the lumen area and,the area delimited by the internal elastic lamina (IEL) and external elastic lamina (EEL) was performed on 5 sections of the vein. The IH was calculated by subtracting the lumen area from the […]. Medial hyperplasia was calculated by subtracting the IEL area from the EEL area.
For each fistula, the percent of the lumen compromised by the intima hyperplasia (%LCIH=IEL−Lumen/IEL) was calculated for the first two complete blocks from the tip of the anastomosis, since IH is most often observed clinically within 1 cm of the anastomosis. Differences in the % LCIH between control and treated sides were averaged for each dose group. Results are presented in Tables 1 a and 1b as well as illustrated in FIGS. 2 and 3.

[2] = test system: PCNA positive (proliferating) cells in the vein; test: PCNA immunocytochemistry of AV fistula veins 48 hours after PDT; format: in vivo, Domestic swine
Description: In Example 4, immunohistochemistry was use to study the early phase of cell proliferation. Immunocytochemistry for the proliferating cell nuclear antigen (PCNA, mouse antibody clone PC10, Sigma) was used to assess cell proliferation in the vein. PCNA positive cells were counted using the Optimas image analysis program.
For the purposes of determining the early cellular effects of PDT on the vein, bilateral AV fistulae were created in six pigs and treated sides were given 0.15 mg BPD-MA (0.15 mg/2 mL) and 40 minutes OR light. After 48 hours these pigs were sacrificed and the fistulae were recovered and processed for histological evaluation. This is not enough time for IH to have developed, but the cellular activation which leads to IH may be detectable. […] Immunocytochemistry for the proliferating cell nuclear antigen (PCNA) was used to assess cell proliferation in the tissue (Table 3).

[3] = 0.015 mg BPD-MA/2 mL into vein lumen, one month, individual pigs
[4] = 0.015 mg BPD-MA/2 mL, one month, group mean
[5] = 0.015 mg BPD-MA/2 mL, one month, individual pigs
[6] = 0.15 mg BPD-MA, OR lamp, one month, group mean
[7] = 0.15 mg BPD-MA, OR lamp, one month, individual pigs
[8] = 0.15 mg BPD-MA/2 mL into vein lumen, one month, individual pigs
[9] = 0.15 mg BPD-MA/2 mL, one month, group mean
[10] = 0.15 mg BPD-MA/2 mL, one month, individual pigs
[11] = 0.15 mg BPD-MA, one month, relative to control mean
[12] = 0.15 mg BPD-MA, one month, treated vs control fistulae
[13] = 0.5 mg BPD-MA/2 mL into vein lumen, one month, individual pigs
[14] = 0.5 mg BPD-MA/2 mL, one month, group mean
[15] = 0.5 mg BPD-MA/2 mL, one month, individual pigs
[16] = 1.5 mg BPD-MA/2 mL into vein lumen, one month, individual pigs
[17] = 1.5 mg BPD-MA/2 mL, one month, group mean
[18] = 1.5 mg BPD-MA/2 mL, one month, individual pigs
[19] = 0.15 mg BPD-MA (0.15 mg/2 mL), 40 minutes OR light, six pigs

## benzoporphyrin derivative monoacid ring A [BPD-MA]
[1]; [3]
  Percent Lumen Compromised by Intimal Hyperplasia, PDT, Block #1: 3.1% and 21.3% and 9% and 30.3% and 3.4% and 2.2%
  Percent Lumen Compromised by Intimal Hyperplasia, PDT, Block #2: 2.4% and 2.3% and 5% and 13% and 8.6% and 1.8%
[1]; [4]
  Percent Lumen Compromised by Intimal Hyperplasia, Control-PDT, Block #1, Mean: 1.5%
  Percent Lumen Compromised by Intimal Hyperplasia, Control-PDT, Block #2, Mean: 2.9%
[1]; 0.015 mg BPD-MA/2 mL, one month, group mean, p = 0.36 vs control
  Percent Lumen Compromised by Intimal Hyperplasia, PDT, Block #2, Mean: 5.5%
[1]; 0.015 mg BPD-MA/2 mL, one month, group mean, p = 0.39 vs control
  Percent Lumen Compromised by Intimal Hyperplasia, PDT, Block #1, Mean: 11.6%
[1]; [5]
  PDT-treated fistula thrombosed (T): T
  Percent Lumen Compromised by Intimal Hyperplasia, Control-PDT, Block #1: −0.2% and 10.2% and −4% and −27.2% and 24.9% and 5.3%
  Percent Lumen Compromised by Intimal Hyperplasia, Control-PDT, Block #2: −0.2% and 27.1% and −2% and −6.5% and −1.9% and 0.9%
[1]; 0.015 mg BPD-MA, one month
  Change in amount of IH between control and treated veins: little change
[1]; [6]
  Percent Medial Hyperplasia, PDT, Block #1, Mean: 10.0%
  Percent Medial Hyperplasia, PDT, Block #2, Mean: 11.5%
[1]; [7]
  PDT-treated fistula thrombosed: T
  Percent Medial Hyperplasia, PDT, Block #1: 5.9% and 15.3% and 6.2% and 12.5% and 9.8%
  Percent Medial Hyperplasia, PDT, Block #2: 10.3% and 5.7% and 18.2% and 9.8% and 13.7%
[1]; [8]
  Percent Lumen Compromised by Intimal Hyperplasia, PDT, Block #1: 7.1% and 19.3% and 4.6% and 9.2% and 6.9% and 21.1%
  Percent Lumen Compromised by Intimal Hyperplasia, PDT, Block #2: 7% and 9.1% and 6.7% and 2.5% and 3.6% and 8.6%
[1]; [9]
  Percent Lumen Compromised by Intimal Hyperplasia, Control-PDT, Block #1, Mean: 7.0%
  Percent Lumen Compromised by Intimal Hyperplasia, Control-PDT, Block #2, Mean: 9.25%
[1]; 0.15 mg BPD-MA/2 mL, one month, group mean, p = 0.06 vs control
  Percent Lumen Compromised by Intimal Hyperplasia, PDT, Block #2, Mean: 6.3%
[1]; 0.15 mg BPD-MA/2 mL, one month, group mean, p = 0.095 vs control
  Percent Lumen Compromised by Intimal Hyperplasia, PDT, Block #1, Mean: 11.4%
[1]; [10]
  PDT-treated fistula thrombosed (T): T
  Percent Lumen Compromised by Intimal Hyperplasia, Control-PDT, Block #1: 24.2% and −1.5% and 8.2% and −2.9%
  Percent Lumen Compromised by Intimal Hyperplasia, Control-PDT, Block #2: 2.7% and 14.8% and 0.5% and 19%
[1]; [11]
  Relative reduction of intimal hyperplasia (mean PDT-induced decrease), first block: 38%
  Relative reduction of intimal hyperplasia (mean PDT-induced decrease), second block: 55%
[1]; [12]
  Reduction in % LCIH, first block: 7.0%
  Reduction in % LCIH, second block: 9.3%
[1]; 0.15 mg/2 mL, one month
  Difference in medial thickness between PDT-treated and control samples, block 2: little difference
  Difference in medial thickness between PDT-treated and control samples, first block: 44%
[1]; [13]
  Percent Lumen Compromised by Intimal Hyperplasia, PDT, Block #1: 18.1% and 16.6% and 32.0%
  Percent Lumen Compromised by Intimal Hyperplasia, PDT, Block #2: 11.2% and 6.8% and 3.4%
[1]; [14]
  Percent Lumen Compromised by Intimal Hyperplasia, Control-PDT, Block #1, Mean: 0.5%
  Percent Lumen Compromised by Intimal Hyperplasia, Control-PDT, Block #2, Mean: 0.9%
  Percent Lumen Compromised by Intimal Hyperplasia, PDT, Block #1, Mean: 22.2%
  Percent Lumen Compromised by Intimal Hyperplasia, PDT, Block #2, Mean: 7.1%
[1]; [15]
  PDT-treated fistula thrombosed (T): T
  Percent Lumen Compromised by Intimal Hyperplasia, Control-PDT, Block #1: −13.0% and 5.1% and 9.4%
  Percent Lumen Compromised by Intimal Hyperplasia, Control-PDT, Block #2: −8.3% and 2.1% and 9.0%
[1]; 0.5 mg BPD-MA, one month
  Difference in IH between treated and control fistulae: Little difference
[1]; [16]
  Percent Lumen Compromised by Intimal Hyperplasia, PDT, Block #1: 19.4% and 17.4% and 21.6% and 41.8% and 12.7%
  Percent Lumen Compromised by Intimal Hyperplasia, PDT, Block #2: 43.0% and 1.7% and 11.7% and 53.8% and 13.9%
[1]; [17]
  Percent Lumen Compromised by Intimal Hyperplasia, Control-PDT, Block #1, Mean: −14.9%
  Percent Lumen Compromised by Intimal Hyperplasia, Control-PDT, Block #2, Mean: −23.6%
  Percent Lumen Compromised by Intimal Hyperplasia, PDT, Block #1, Mean: 22.6%
  Percent Lumen Compromised by Intimal Hyperplasia, PDT, Block #2, Mean: 24.8%
[1]; [18]
  PDT-treated fistula thrombosed (T): T
  Percent Lumen Compromised by Intimal Hyperplasia, Control-PDT, Block #1: −0.7% and −13.7% and −38.9% and −6.2%
  Percent Lumen Compromised by Intimal Hyperplasia, Control-PDT, Block #2: −37.9% and 5.1% and −49.9% and −11.8%
[1]; 1.5 mg dose BPD-MA, one month
  Effect on IH: appeared to induce IH
[1]; PDT with high doses of BPD-MA
  Effect on development of IH, high doses: either did not modulate the development of IH or actually induced IH
[1]; PDT with high doses of BPD-MA, one month
  Thrombogenicity of vessel wall, high doses: appeared to render the vessel wall more thrombogenic
[1]; all animals 0.015 to 1.5 mg/2 ml BPD-MA, excluding those with less than 10% IH in control fistulae, Block 1 p=0.03, Block 2 p=0.02
  Percent IH in PDT-treated vs control fistulae, responders only: significantly less
[1]; all doses (0.015-1.5 mg/2 mL BPD-MA), control fistulae 26.0%
  Average one-month thrombosis incidence, PDT-treated fistulae: 26.6%
[1]; low doses (0.15 mg/2 ml) locally delivered BPD-MA, ambient light from operating room lamps
  Effect on IH at the anastomosis of arteriovenous grafts, low doses: resulted in the reduction of IH
[1]; low-dose PDT, one month
  Incidence of thrombosis, low-dose PDT: not associated with an increase in the incidence of thrombosis
[1]; one month
  Effect of PDT on medial thickening: did not affect medial thickening
[1]; one month, 0.015-1.5 mg/2 mL
  Number of fistulae that thrombosed vs drug dose: correlated roughly with increasing drug dose
[1]; one month, marked with some doses (0.15 mg)
  Statistical significance of differences in intimal thickening between PDT-treated and control veins: not statistically significant
[2]; [19]
  MEAN PERCENT OF PCNA POSITIVE CELLS PER TISSUE AREA, PDT, BLOCK 1: 0.33%
  MEAN PERCENT OF PCNA POSITIVE CELLS PER TISSUE AREA, PDT, BLOCK 2: 0.74%
  MEAN PERCENT OF PCNA POSITIVE CELLS PER TISSUE AREA, PDT, BLOCK 3: 0.65%
[2]; low-dose PDT (0.15 mg BPD-MA)
  Reduction of number of proliferating cells at the anastomosis of the vein: 2 fold
